Laboratory results reported in patent US4859673A, “Amide derivatives and antiallergic agents containing the same” (Terumo Kabushiki Kaisha, priority 1986, dated 1989).

System: passive cutaneous anaphylaxis reaction (PCA reaction)
Assay: PCA reaction-inhibitory effects in rats (passive cutaneous anaphylaxis, oral administration)
Format: in vivo, Female Sprague-Dawley strain rats
Conditions: 1 hour before challenge
Protocol: DNP-ascaris (1 mg) prepared by combining a swine ascaris extract with 2,4-dinitrophenyl sulfate was mixe with 20 mg of aluminum hydroxide gel. The mixture was administered to rats subcutaneously on the back, and at the same time the animals were intraperitoneally given 2×10^10 dead Bordetella pertussis respectively. The same procedures were repeated after 14 days, and blood sample was obtained after 21 days to produce antisera.
Female Sprague-Dawley strain rats (8 weeks old) were sensitized by subcutaneously administering 0.1 ml of 1:256 diluted antisera (titer=1024)respectively on the grained back. After 48 hours, groups of four rats were orally given the amide derivatives produced in the examples above at various concentrations. After one hour, the rats were challenged by intravenously administering a 0.5% physiological saline solution of Evans Blue containing 1 mg of the NDP-ascaris from the tail. After 30 minutes, the animal was sacrificed by bleeding and the portion of the skin with the dye exuded was cut off. The cut skin was treated with 1N-KOH solution, and the dye was extracted by adding 9 ml of 0.6N-phosphoric acid-acetone (5:13) mixture. The supernatant from centrifugal separation was measured for absorbancy at 620 nm to determine amount of the dye. Percent inhibition at each of the concentrations of the amide derivatives was calculated in comparison with amount of the dye for control group. Results are shown in Table-I. Percent inhibition of tranilast, an antiallergic agent commercially available from Kissei Pharmaceutical Co., Ltd. under the trade name of Rizaben against PCA reaction was also shown in Table-I. As shown in Table-I, the amide derivatives of the invention produced high PCA reaction-inhibitory effects.

| Structure (SMILES) | Inhibition (%) mean ± SE, PCA reaction (30 mg/kg) | Inhibition (%) mean ± SE, PCA reaction (100 mg/kg) | Inhibition (%) mean ± SE, PCA reaction (10 mg/kg) | Inhibition (%) mean ± SE, PCA reaction (200 mg/kg) | Inhibition (%) mean ± SE, PCA reaction (300 mg/kg) |
| --- | --- | --- | --- | --- | --- |
| COc1cc(/C=C/C=C/C(=O)NCCN2CCC(OC(c3ccccc3)c3ccccc3)CC2)ccc1OCc1ccccc1 [Example 1, 1-[2-(5-(3-methoxy-4-benzyloxyphenyl)-2,4-pentadienoyl)aminoethyl]-4-diphenylmethoxypiperidine] | 0 ± 20% | 50 ± 14% | – | – | – |
| COc1cc(/C=C/C=C/C(=O)NCCN2CCC(OC(c3ccccc3)c3ccccc3)CC2)ccc1OC1CCCO1 (stereo not drawn) [Example 2, 1-[2-(5-(3-methoxy-4-(2-tetrahydrofuranyl)oxyphenyl)-2,4-pentadienoyl)aminoethyl]-4-diphenylmethoxypiperidine] | 71 ± 6% | – | 51 ± 18% | – | – |
| CCOCOc1ccc(/C=C/C=C/C(=O)NCCN2CCC(OC(c3ccccc3)c3ccccc3)CC2)cc1OC [Example 3, 1-[2-(5-(3-methoxy-4-ethoxymethoxyphenyl)-2,4-pentadienoyl)aminoethyl]-4-diphenylmethoxypiperidine] | 55 ± 9% | 78 ± 8% | – | – | – |
| COc1ccc(/C=C/C(=O)Nc2ccccc2C(=O)O)cc1OC [Tranilast, reference compound] | – | 37 ± 8% | – | 40 ± 10% | 42 ± 5% |
